Measured values reported in article PMC8456958, “Selective Bacterial Targeting and Infection‐Triggered Release of Antibiotic Colistin Conjugates” (Angewandte Chemie (International Ed. in English), 2021).
Converted amounts (≈) assume the structure as drawn.

Legend:
E. coli K12 = assay type: cell-based, Escherichia coli; conditions: for MIC with 10 mU mL^−1 Elastase / MIC with 100 mU mL^−1 Elastase / MIC without Elastase: Table 2, E. coli K12, conservative MIC readouts of at least three independent biological experiments
Method: Determination of antibacterial activities by broth dilution assay
Bacterial suspensions at 5-6 x 10^5 CFU (1:1000 dilution of a bacterial suspension of OD600 = 1) in T-medium were incubated in volumes of 200 µl in sterile clear 96-well microtiter plates at 37 °C in a wet chamber with serial dilution of peptide-colistin constructs and controls (32 – 0.016 µM) for 18 h.
External neutrophil elastase was added at 10 mU/ml or 100 mU/ml to each well at the start of incubation, where indicated. After the incubation, the plate was placed for 5 min on a MTP shaker to generate homogenous bacterial suspensions. OD600 was then determined in a microplate reader. The wells with the lowest compound concentration without growth defined the MICs. […]
Figure S7. Heat plot of the growth of E. coli K12 and E. coli DSM 1116 in presence of 6. Rows A-D: E. coli K12; Rows E-H: E. coli DSM 1116; A + E colistin; B + F peptide-colistin construct 6; C + G peptide-colistin construct 6 + 10 mU/ml elastase; D + H bacteria without compounds. The numbers below the heatplot depict the concentration of colistin and peptides in µM. Conditions: T medium, incubation 20 h at 37 °C in wet chamber; inoculum: cultures at OD = 1.0 diluted 1:1000 (5-6 x 10^5 CFU/ml). […]
Figure S10. Heat plot of the growth of E. coli in presence of 48 and 49. Row A: E. coli K12 without added compounds; B colistin B; C peptide-colistin construct 49; D peptide-colistin construct 49 + 10 mU/ml elastase; E ElsaSub-colistin; F 48 with 10 mU elastase; G 4; H 4 with […]. The numbers depict the concentration of colistin and peptides in µM. Conditions: T medium, incubation 17.5 h at 37 °C in wet chamber; inoculum 5-6 x 10^5 CFU/ml. […]
with elastase 10 mU/ml pos-1-isomer (22) […]
with elastase 10 mU/ml pos-3-isomer (28) […]
with elastase 10 mU/ml pos-5-isomer (34) […]
with elastase 10 mU/ml pos-8-isomer (40) […]
with elastase 10 mU/ml pos-9-isomer (46)
Figure S11. Heat plot of the growth of E. coli in presence of positional isomers obtained by total chemical synthesis. Conditions: T medium, incubation for 20 h at 37 °C in wet chamber; inoculum 5-6 x 10^5 CFU/ml. Addition of neutrophil elastase at 10 and 100 mU/ml, as indicated. Concentrations of isomers stated below the heat plot in µg/ml. […]

[1] = system: E. coli K12, A. baumannii, P. aeruginosa PA14; assay: Quantification of bacterial binding of fluorescently labelled compounds; assay type: cell-based; conditions: 1 μM in PBS, rt, 1 h incubation, washing, 485/520 nm
Method: Figure 4 Staining of Gram‐negative bacteria with fluorescently labeled colistin conjugates. a) Three Gram‐negative bacteria (E. coli K12, A. baumannii, P. aeruginosa PA14) were grown in T‐medium, to an OD600 of 1.0, and the fluorescently labeled compounds were added (1 μM in PBS, rt, 1 h incubation), followed by washing steps and a quantification of fluorescence in the wells. C‐Fluo: 5(6)‐carboxyfluorescein. […] An overlay of fluorescence (485/520 nm) and phase contrast pictures is shown. […]
Cell counting: 20 µl of a cell suspension were mixed with 20 µl Cedex Tryptan Blue Solution. 10 µl of the mixture were measured automatically in a cell counter (Cedex XS Cell Analyzer, Roche) in duplicate.
Quantification of bacterial binding of fluorescently labelled compounds The bacterial strains A. baumannii, E. coli K12 and P. aeruginosa PA14 were cultivated in T-medium at 37 °C to exponential growth (OD600 = 2-3). […] Afterwards, the bacteria were washed twice with PBS, suspended at OD600 = 0.2 in PBS and fluorescence was measured at 485/520 nm with 200 µl of bacterial suspensions in black 96-well microtiter plates from above in triplicate. […]

Compound | MIC with 10 mU mL^−1 Elastase (E. coli K12) | MIC with 100 mU mL^−1 Elastase (E. coli K12) | MIC without Elastase (E. coli K12) | further results
4-pentinoyl-ßAla-Ala-Ala-Pro-Val-colistin B (lariat or depsi) [Compound 48] |  |  |  | MIC (E. coli K12; E. coli K12, T medium, 17.5 h at 37 °C (Figure S10), text does not say with or without elastase): 16 µM
CC[C@H](NC(=O)[C@@H]1C[C@@H]2CCCC[C@@H]2N1C(=O)[C@H](CCS(C)(=O)=O)NC(=O)[C@H](Cc1ccc(C(=O)c2ccccc2)cc1)NC(=O)CCc1cn(CCCC[C@@H](NC(=O)CCNC(=O)[C@@H](CCCNC(=N)N)NC(=O)[C@@H](CCCNC(=N)N)NC(=O)[C@@H](CC(N)=O)NC(=O)[C@@H](Cc2ccc(O)cc2)NC(=O)[C@@H](CCC(N)=O)NC(=O)[C@@H](CCSC)NC(=O)[C@@H](CCCNC(=N)N)NC(=O)[C@@H](CCCNC(=N)N)NC(=O)[C@@H](CCCCN)NC(=O)[C@@H](C)NC(=O)[C@@H](CCCNC(=N)N)NC(=O)CNC(=O)[C@H](N)[C@H](C)O)C(N)=O)nn1)C(=O)NCC[C@@H]1NC(=O)[C@@H](NC(=O)[C@H](CCN)NC(=O)[C@@H](NC(=O)[C@H](CCN)NC(=O)CCCCC(C)C)[C@@H](C)O)CCNC(=O)[C@H]([C@@H](C)O)NC(=O)[C@H](CCN)NC(=O)[C@H](CCN)NC(=O)[C@H](CC(C)C)NC(=O)[C@@H](CC(C)C)NC1=O [Compound 34] | 4 µM | 4 µM | >32 µM | 
(all-D) T-G-R-A-K-R-R-M-Q-Y-N-R-R-ßAla-norleucinamide(1H-1,2,3-triazol-4-yl)propionyl-ßAla-L-Ala-L-Ala-L-Pro-L-Val-colistin B [Compound 49] |  |  |  | antimicrobial activity (MIC) in the presence of neutrophil elastase (E. coli K12; E. coli K12, 10 mU/ml elastase, T medium, 17.5 h at 37 °C (Figure S10)): > 32 µM; antimicrobial activity (MIC) in the absence of neutrophil elastase (E. coli K12; E. coli K12, T medium, 17.5 h at 37 °C (Figure S10)): > 32 µM
CC[C@H](NC(=O)[C@@H]1C[C@@H]2CCCC[C@@H]2N1C(=O)[C@H](CCS(C)(=O)=O)NC(=O)[C@H](Cc1ccc(C(=O)c2ccccc2)cc1)NC(=O)CCc1cn(CCCC[C@@H](NC(=O)CCNC(=O)[C@@H](CCCNC(=N)N)NC(=O)[C@@H](CCCNC(=N)N)NC(=O)[C@@H](CC(N)=O)NC(=O)[C@@H](Cc2ccc(O)cc2)NC(=O)[C@@H](CCC(N)=O)NC(=O)[C@@H](CCSC)NC(=O)[C@@H](CCCNC(=N)N)NC(=O)[C@@H](CCCNC(=N)N)NC(=O)[C@@H](CCCCN)NC(=O)[C@@H](C)NC(=O)[C@@H](CCCNC(=N)N)NC(=O)CNC(=O)[C@H](N)[C@H](C)O)C(N)=O)nn1)C(=O)NCC[C@@H]1NC(=O)[C@H](CC(C)C)NC(=O)[C@@H](CC(C)C)NC(=O)[C@H](CCN)NC(=O)[C@@H](NC(=O)[C@H](CCN)NC(=O)[C@@H](NC(=O)[C@H](CCN)NC(=O)CCCCC(C)C)[C@@H](C)O)CCNC(=O)[C@H]([C@@H](C)O)NC(=O)[C@H](CCN)NC1=O [Compound 40] | >32 µM | 32 µM | >32 µM | 
CC[C@H](NC(=O)[C@@H]1C[C@@H]2CCCC[C@@H]2N1C(=O)[C@H](CCS(C)(=O)=O)NC(=O)[C@H](Cc1ccc(C(=O)c2ccccc2)cc1)NC(=O)CCc1cn(CCCC[C@@H](NC(=O)CCNC(=O)[C@@H](CCCNC(=N)N)NC(=O)[C@@H](CCCNC(=N)N)NC(=O)[C@@H](CC(N)=O)NC(=O)[C@@H](Cc2ccc(O)cc2)NC(=O)[C@@H](CCC(N)=O)NC(=O)[C@@H](CCSC)NC(=O)[C@@H](CCCNC(=N)N)NC(=O)[C@@H](CCCNC(=N)N)NC(=O)[C@@H](CCCCN)NC(=O)[C@@H](C)NC(=O)[C@@H](CCCNC(=N)N)NC(=O)CNC(=O)[C@H](N)[C@H](C)O)C(N)=O)nn1)C(=O)NCC[C@H](NC(=O)CCCCC(C)C)C(=O)N[C@H](C(=O)N[C@@H](CCN)C(=O)N[C@H]1CCNC(=O)[C@H]([C@@H](C)O)NC(=O)[C@H](CCN)NC(=O)[C@H](CCN)NC(=O)[C@H](CC(C)C)NC(=O)[C@@H](CC(C)C)NC(=O)[C@H](CCN)NC1=O)[C@@H](C)O [Compound 22] | 0.125 µM | 0.063 µM | 4 µM (≈ 15.2 µg/mL) | 
Neutrophil elastase: Neutrophil Elastase (human), affinity purified, USBiological |  |  |  | antimicrobial activity of neutrophil elastase alone (E. coli K12; elastase alone, two strains of E. coli (K12 and DSM 1116)): did not display any antimicrobial activity
5(6)‐carboxyfluorescein |  |  |  | bacterial binding (fluorescence), in words [1]: did hardly show binding above background
CC[C@H](NC(=O)[C@@H]1C[C@@H]2CCCC[C@@H]2N1C(=O)[C@H](CCS(C)(=O)=O)NC(=O)[C@H](Cc1ccc(C(=O)c2ccccc2)cc1)NC(=O)CCc1cn(CCCC[C@@H](NC(=O)CCNC(=O)[C@@H](CCCNC(=N)N)NC(=O)[C@@H](CCCNC(=N)N)NC(=O)[C@@H](CC(N)=O)NC(=O)[C@@H](Cc2ccc(O)cc2)NC(=O)[C@@H](CCC(N)=O)NC(=O)[C@@H](CCSC)NC(=O)[C@@H](CCCNC(=N)N)NC(=O)[C@@H](CCCNC(=N)N)NC(=O)[C@@H](CCCCN)NC(=O)[C@@H](C)NC(=O)[C@@H](CCCNC(=N)N)NC(=O)CNC(=O)[C@H](N)[C@H](C)O)C(N)=O)nn1)C(=O)NCC[C@H](NC(=O)[C@@H](NC(=O)[C@H](CCN)NC(=O)CCCCC(C)C)[C@@H](C)O)C(=O)N[C@H]1CCNC(=O)[C@H]([C@@H](C)O)NC(=O)[C@H](CCN)NC(=O)[C@H](CCN)NC(=O)[C@H](CC(C)C)NC(=O)[C@@H](CC(C)C)NC(=O)[C@H](CCN)NC1=O [Compound 28] | 0.25 µM | 0.125 µM | 8 µM (≈ 30.4 µg/mL) | 
CC[C@H](NC(=O)[C@@H]1C[C@@H]2CCCC[C@@H]2N1C(=O)[C@H](CCS(C)(=O)=O)NC(=O)[C@H](Cc1ccc(C(=O)c2ccccc2)cc1)NC(=O)CCc1cn(CCCC[C@@H](NC(=O)CCNC(=O)[C@@H](CCCNC(=N)N)NC(=O)[C@@H](CCCNC(=N)N)NC(=O)[C@@H](CC(N)=O)NC(=O)[C@@H](Cc2ccc(O)cc2)NC(=O)[C@@H](CCC(N)=O)NC(=O)[C@@H](CCSC)NC(=O)[C@@H](CCCNC(=N)N)NC(=O)[C@@H](CCCNC(=N)N)NC(=O)[C@@H](CCCCN)NC(=O)[C@@H](C)NC(=O)[C@@H](CCCNC(=N)N)NC(=O)CNC(=O)[C@H](N)[C@H](C)O)C(N)=O)nn1)C(=O)NCC[C@@H]1NC(=O)[C@H](CCN)NC(=O)[C@H](CC(C)C)NC(=O)[C@@H](CC(C)C)NC(=O)[C@H](CCN)NC(=O)[C@@H](NC(=O)[C@H](CCN)NC(=O)[C@@H](NC(=O)[C@H](CCN)NC(=O)CCCCC(C)C)[C@@H](C)O)CCNC(=O)[C@H]([C@@H](C)O)NC1=O [Compound 46] | 32 µM | 8 µM | >32 µM | 
